The results in this text go back to patent US20260193250A1, “TOLL-LIKE RECEPTOR 7 AGONISTS AS IMMUNE-STIMULATORS TO ELICIT THE INNATE ANTITUMOR IMMUNITY” (Merck Patent GmbH, priority 2022, published 2026).

For this assay, the target named is T1, hTLR8 (Homo sapiens, UniProt Q9NR97).
T1 construct: host or cells: HEK-Blue hTLR8 (HEK293-derived SEAP reporter cells)
T1 sequence (Q9NR97 27-1041): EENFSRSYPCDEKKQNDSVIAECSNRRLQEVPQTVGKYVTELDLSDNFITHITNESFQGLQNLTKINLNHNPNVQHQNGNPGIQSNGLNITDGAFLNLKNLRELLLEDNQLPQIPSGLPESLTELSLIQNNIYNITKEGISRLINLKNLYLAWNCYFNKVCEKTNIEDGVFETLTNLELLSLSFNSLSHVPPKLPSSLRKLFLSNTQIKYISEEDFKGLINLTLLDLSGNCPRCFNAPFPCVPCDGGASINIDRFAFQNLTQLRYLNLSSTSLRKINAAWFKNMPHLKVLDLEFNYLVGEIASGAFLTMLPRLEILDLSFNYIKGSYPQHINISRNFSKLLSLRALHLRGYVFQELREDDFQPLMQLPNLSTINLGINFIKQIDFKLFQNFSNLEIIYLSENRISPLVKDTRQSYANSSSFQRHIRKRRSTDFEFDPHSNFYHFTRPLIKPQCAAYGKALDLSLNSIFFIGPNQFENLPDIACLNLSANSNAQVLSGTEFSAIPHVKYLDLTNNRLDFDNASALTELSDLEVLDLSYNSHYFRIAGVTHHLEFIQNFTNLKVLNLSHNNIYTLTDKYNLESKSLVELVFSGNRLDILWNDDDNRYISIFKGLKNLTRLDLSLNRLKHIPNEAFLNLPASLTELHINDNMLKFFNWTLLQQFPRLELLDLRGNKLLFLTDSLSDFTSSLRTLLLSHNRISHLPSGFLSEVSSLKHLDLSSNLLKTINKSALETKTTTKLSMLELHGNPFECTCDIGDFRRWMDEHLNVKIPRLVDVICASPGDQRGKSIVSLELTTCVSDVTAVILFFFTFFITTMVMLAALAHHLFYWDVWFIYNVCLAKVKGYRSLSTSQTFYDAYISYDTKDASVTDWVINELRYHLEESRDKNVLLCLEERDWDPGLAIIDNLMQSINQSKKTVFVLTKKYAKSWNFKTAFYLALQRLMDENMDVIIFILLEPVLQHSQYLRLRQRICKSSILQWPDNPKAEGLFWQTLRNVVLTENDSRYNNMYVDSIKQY
Kind of assay: TLR8 reporter assay in HEK-Blue cells (SEAP, Quanti-Blue). Conditions: 24 hours incubation, SEAP absorbance at 620 nm. It is filed as cell-based. As to the method:
HEK-Blue™ TLR7 and TLR8 cell lines were obtained from InvivoGen (San Diego, CA, USA). HEK-Blue cells were cultured in DMEM medium hi glucose (Gibco-10569010) supplemented with 10% HI-FBS (Aus origin) (Gibco-10100-147), 1% penicillin/streptomycin (Gibco-15140-122-100 ml) as per manufacturer's recommendation. In addition, specific antibiotic mixtures were added to the culture. 100 μg/ml Zeocin (11006-33-0), 10 μg/ml Blasticidin (ant-bl-05), 50 μg/ml Normocin (ANT-NR-1-500 MG) for HEK-Blue™ hTLR7 and 100 μg/ml Zeocin, 30 μg/ml Blasticidin, 50 μg/ml Normocin for HEK-Blue™ hTLR8 cells (all from InvivoGen).
All the compounds were prepared in 100% DMSO (Sigma-D2650). The compounds were serially diluted in 100% DMSO (3 fold) up to 10 point dose response curve starting with 30 μM; final concentration of DMSO in the plate was 0.3%. Resiquimod and TL8-506 (InvivoGen-tlrl-t18506) were used as controls. 0.3% DMSO and 10 μM Resiquimod were used as min and max respectively, and % activation was calculated using following formula:
% Activation: {100−(max absorbance−absorbance)/(max absorbance−min absorbance)}×100.
For stimulation with TLR7/8 agonists, cells were resuspended in complete media and 40 μl of cell suspension (10,000 cells/well) was seeded on day 1 in 384 well assay plate (Thermo Scientific™ Nunc-164688) having pre-dispensed compounds with Echo Liquid handler. The plate was spun at 100 g for 1 min to settle down the cells and incubated at 37° C. with 5% CO2 for 24 hours. For measuring production of SEAP after 24 hrs of incubation, 10 μl of Quanti-Blue™ solution (InvivoGen rep-qbs2) prepared according to manufacturer's instructions was added in dark to the assay plate and incubated at 37° C. with 5% CO2 for 30 min. Post incubation, the absorbance was measured at 620 nm in Tecan spark (Spark control Magellan). EC50 were determined using Graph Pad Prism Statistical software (Version 7.05), with individual data points represent the absorbance values of duplicates.
(A reporter such as luciferase makes a cellular process visible.)
As a reminder, the EC50 is the concentration at which the effect is half-maximal. Low readings indicate higher potency in that assay, high ones lower potency in that assay. `CCOCc1nc2c(N)nc3ccccc3c2n1CC(C)(C)OCCCN1CCN(C)CC1` [Example 2] showed an EC50 of 1 to 10 µM.

Take `CCOCc1nc2c(N)nc3ccccc3c2n1CC(C)(C)OCCCCN1CCNCC1` [Example 10]: the EC50 was 1 to 10 µM.

`CCOCc1nc2c(N)nc3ccccc3c2n1CC(C)(C)OCCCCN1CCN(CC(C)(C)SC)CC1` [Example 27] showed an EC50 of 1 to 10 µM.

Take `CCOCc1nc2c(N)nc3ccccc3c2n1CC(C)(C)OCCCCN1CCCC1` [Example 9]: the EC50 was 0.1 to 1 µM.

Regarding `CCNCc1nc2c(N)nc3ccccc3c2n1CC(C)(C)OCCCCN1CCN(C)CC1` [Example 18], the EC50 is over 10 µM.

Consider `CCOCc1nc2c(N)nc3ccccc3c2n1CC(C)(C)OCCCCn1cc(CO)nn1` [Example 13], for which the EC50 was over 10 µM.

In the case of `CCOCc1nc2c(N)nc3ccccc3c2n1CC(C)(C)OCCCCn1cc(CN)nn1` [Example 14], the EC50 is 1 to 10 µM.

`CCOCc1nc2c(N)nc3ccccc3c2n1CC(C)(C)OCCCCN1CCN(CCN)CC1` [Example 11] gave an EC50 of 1 to 10 µM.

Regarding `CCOCc1nc2c(N)nc3ccccc3c2n1CC(C)(C)OCCCCN1CCN(C)CC1` [Example 3], the EC50 lay in the range of 1 to 10 µM.

Molecule `CCOCc1nc2c(N)nc3ccccc3c2n1CC(C)(C)OCCCCCN1CCN(C)CC1` [Example 4] displayed an EC50 of 0.1 to 1 µM.

Regarding `CCOCc1nc2c(N)nc3ccccc3c2n1CC(C)(C)OCCCCN1CCOCC1` [Example 7], the EC50 lay in the range of 0.1 to 1 µM.

Consider `CCOCc1nc2c(N)nc3ccccc3c2n1CC(C)(C)OCCCCN1CCCCC1` [Example 8], for which the EC50 was 1 to 10 µM.

`CCOCc1nc2c(N)nc3ccccc3c2n1CC(C)(C)OC(=O)CN` [Example 19] had a concentration for a half-maximal effect (EC50) of 0.01 to 0.1 µM.
